Test results as given in patent publication US11077167B2, “Agent for promoting skeletal muscle injury repair” (Osaka University, priority 2017, dated 2021).

How the values were obtained:
[1] = system: muscle injury model rats (incised masseter muscles on both sides); assay: Behavioral physiological experiment (feeding behavior, body weight), Example 1; type: in vivo, Jcl:SD rats; details: 1 mL intramuscular
Experimental: (§1) Incisions were made in masseter muscles on both sides in Jcl:SD rats (10 weeks old). Immediately after muscle incision, 1 mL each of the SV peptide (20 ng/mL) was intramuscularly administered into several sites surrounding the cut surfaces. The incision on each side was made along a straight line connecting the lateral angle of the eye and the mandibular angle, extending in depth from the fascia on the skin side to the lateral periosteum on the mandibular ramus. The cut surfaces were subjected to electrocoagulation with an electric scalpel for the arrest of bleeding (see FIG. 1).
Feeding behavior and body weight of each rat was monitored preoperatively and 1 and 2 weeks postoperatively. More specifically, each rat was housed in a transparent plastic cage of 30 cm in length×30 cm in width×30 cm in height, and the behavior was recorded on video cameras during the active time of rats (18:00 to 22:00). Food intake and mastication time were measured, and the food intake per unit of mastication time (feeding efficiency) was calculated. This experiment was performed on a muscle injury model subjected to administration of the SV peptide into the incised masseter muscles on both sides (SV group) and on a muscle injury model subjected to administration of PBS into the incised masseter muscles on both sides (PBS group).

[2] = system: muscle injury model rats (incised masseter muscles on both sides); assay: CT image analysis at postoperative week 8; type: in vivo, Jcl:SD rats
Experimental: as §1, with “old) under anesthesia in the same manner as in Example 1.” for “old).”, “ng/mL) or 1 mL each of PBS” for “ng/mL)”, “1). […]” for “1).”
Images were taken at postoperative week 8 using a micro CT for laboratory animals (Rigaku, tube voltage: 90 kV, tube current: 160 μA, voxel size: 118 μm). […] On the image at the level of the occlusal plane including the masseter muscle incision site, the muscle cross-sectional area (CSA), the mean CT value, and the % CSA (the percentage of the area having a muscle CT value in the area of interest) were measured and compared.

[3] = system: muscle injury model rats (incised masseter muscles on both sides); assay: Histological staining of masseter muscles at postoperative week 8, Example 2; type: in vivo, Jcl:SD rats; details: sirius red staining
Experimental: as §1, with “old) under anesthesia in the same manner as in Example 1.” for “old).”, “ng/mL) or 1 mL each of PBS” for “ng/mL)”, “1). […]” for “1).”
Each rat was euthanized at postoperative week 8, and the masseter muscles on both sides were excised. […] Histological characteristics of regenerated muscle fibers at the muscle injury site were assessed on the HE-stained sections. The amount of muscle fibers formed and the diameter of the muscle fibers in the tissue were measured on the sirius red-staining sections.

[4] = system: Human skeletal muscle myoblasts (HSMMs); assay: Chemotactic capacity (Chemotaxicell membrane); type: cell-based; details: SV peptide 20 ng/mL as chemoattractant; 12 hours; vs PBS or random SV
Experimental: (§2) Human skeletal muscle myoblasts (HSMMs) were purchased from Lonza and used. The medium used for HSMM culture was the supplier's recommended medium (Skeletal Muscle Growth Media-2 supplemented with SingleQuots Kit).
A polycarbonate membrane with a pore size of 8 μm (Chemotaxicell: Kurabo Industries LTD.) was immersed in a 10 μg/mL fibronectin solution at room temperature for 30 minutes for coating the membrane. A medium containing the SV peptide (20 ng/mL, SV group), the random SV (20 ng/mL, random SV group), or PBS (PBS group) as a chemoattractant was added to a lower chamber. On an upper chamber, human skeletal muscle satellite cells and human skeletal muscle myoblasts were separately seeded at 2.0×10^4 cells/mL in DMEM containing 0.1% BSA. A pair of chambers was incubated at 37° C. for 12 hours. The cells on the upper surface of the membrane were removed with a swab, and the membrane was fixed with a 10% neutral buffered formalin solution (Wako Pure Chemical Industries, Ltd.) and stained with hematoxylin. The number of cells migrated to the lower surface of the membrane was measured under an optical microscope.

[5] = system: Human skeletal muscle myoblasts (HSMMs); assay: Myogenin expression by immunofluorescence staining; type: cell-based; details: SV peptide 20 ng/mL, HS group = 2% horse serum positive control
Text: as §2
Myogenin is known to be expressed when myoblasts differentiate into myotube cells. In this experiment, myogenin expression was used as an index to examine the effect of the SV peptide on the differentiation of human skeletal muscle myoblasts.
Human skeletal muscle myoblasts were cultured in a medium containing the SV peptide (20 ng/mL, SV group), the random SV (20 ng/mL, random SV group), or PBS (PBS group) for 48 or 72 hours. For a positive control, human skeletal muscle myoblasts were cultured in an F-12/DMEM medium containing 2% horse serum, which is known to facilitate myoblast differentiation into myotube cells (Moira A. Lawson et al.: Cells Tissues Organs 2000; 167: 130-137) (HS group). After 48- or 72-hour culture, the cells were immunostained with an anti-human myogenin antibody by the usual method and observed with a fluorescence microscope.

angiogenesis = details: Patent Literature 1, Non Patent Literature 1 and 2; compared with VEGF; cited from earlier work

What does the source list for SVVYGLR [SV peptide]?
feeding efficiency (food intake per unit of mastication time) ([1]; postoperative week 1, relative to preoperative value = 1, SV peptide 20 ng/mL): reduced; feeding efficiency (food intake per unit of mastication time) ([1]; postoperative week 2, relative to preoperative value = 1, SV peptide 20 ng/mL): recovered to almost the preoperative level; muscle cross-sectional area (CSA) ([2]; CT image at occlusal plane level, SV group vs PBS group): significantly greater CSA in the area including the muscle incision site than that in the corresponding area in the PBS group; % CSA (percentage of the area having a muscle CT value in the area of interest) ([2]; SV side vs control side within SV group): significantly higher % CSA on the left side with SV administration (SV side) than that on the right side without administration (control side); amount of scar formation (area of scar tissue formed on the cut surfaces) ([3]; SV peptide administration side vs PBS administration side): remarkably reduced from that on the PBS administration side in the PBS group; diameter of the muscle fibers ([3]; SV side vs control side in SV group): significantly larger than that on the control side in the same group; chemotactic capacity (number of cells migrated to lower surface of membrane) [4]: significantly higher chemotactic capacity than that of the counterpart in the PBS group or the random SV group; percentage of myogenin-positive cells ([5]; 48-hour culture): significantly higher than that in the PBS group or the random SV group, but significantly lower than that in the HS group; percentage of myogenin-positive cells ([5]; 72-hour culture): significantly higher than that in the PBS group or the random SV group, and comparable to that in the HS group; angiogenic activity (angiogenesis): high angiogenic activity that is comparable to that of VEGF
